Patent US7393868B2, “AMPA receptor potentiators” (Eli Lilly and Company, priority 2005, dated 2008)

molecular target: T1, human iGluR4 (Homo sapiens, UniProt P48058); experiment: Whole-cell voltage clamp potentiation of glutamate-evoked current in HEK293 cells stably expressing human iGluR4; assay type: cell-based; settings: whole-cell voltage clamp at −60 mV, potentiation of current evoked by 1 mM glutamate, Hill equation fit
T1 construct: expressed in transfected cells; host or cells: HEK293
Source text: HEK293 cells stably expressing human iGluR4(obtained as described in European Patent Application Publication No. EP-A1-0583917) are used in the electrophysiological characterization of AMPA receptor potentiators. The extracellular recording solution contains (in mM): 140 NaCl, 5 KCl, 10 HEPES, 1 MgCl2, 2 CaCl2, 10 glucose, pH=7.4 with NaOH, 295 mOsm kg−1. The intracellular recording solution contains (in mM): 140 CsCl, 1 MgCl2, 10 HEPES, (N-[2-hydroxyethyl]piperazine-N1-[2-ethanesulfonic acid]) 10 EGTA (ethylene-bis(oxyethylene-nitrilo)tetraacetic acid), pH=7.2 with CsOH, 295 mOsm kg−1. With these solutions, recording pipettes have a resistance of 2-3 MΩ. Using the whole-cell voltage clamp technique (Hamill et al. (1981) Pflügers Arch., 391: 85-100), cells are voltage-clamped at −60 mV and control current responses to 1 mM glutamate are evoked. Responses to 1 mM glutamate are then determined in the presence of test compound. Compounds are deemed active in this test if, at a test concentration of 10 μM or less, they produce a greater than 10% increase in the value of the current evoked by 1 mM glutamate.
In order to determine the potency of test compounds, the concentration of the test compound, both in the bathing solution and co-applied with glutamate, is increased in half log units until the maximum effect was seen. Data collected in this manner are fit to the Hill equation, yielding an EC50 value, indicative of the potency of the test compound. Reversibility of test compound activity is determined by assessing control glutamate 1 mM responses. Once the control responses to the glutamate challenge are re-established, the potentiation of these responses by 100 μM cyclothiazide is determined by its inclusion in both the bathing solution and the glutamate-containing solution. In this manner, the efficacy of the test compound relative to that of cyclothiazide can be determined.

T1 sequence (P48058 21-902): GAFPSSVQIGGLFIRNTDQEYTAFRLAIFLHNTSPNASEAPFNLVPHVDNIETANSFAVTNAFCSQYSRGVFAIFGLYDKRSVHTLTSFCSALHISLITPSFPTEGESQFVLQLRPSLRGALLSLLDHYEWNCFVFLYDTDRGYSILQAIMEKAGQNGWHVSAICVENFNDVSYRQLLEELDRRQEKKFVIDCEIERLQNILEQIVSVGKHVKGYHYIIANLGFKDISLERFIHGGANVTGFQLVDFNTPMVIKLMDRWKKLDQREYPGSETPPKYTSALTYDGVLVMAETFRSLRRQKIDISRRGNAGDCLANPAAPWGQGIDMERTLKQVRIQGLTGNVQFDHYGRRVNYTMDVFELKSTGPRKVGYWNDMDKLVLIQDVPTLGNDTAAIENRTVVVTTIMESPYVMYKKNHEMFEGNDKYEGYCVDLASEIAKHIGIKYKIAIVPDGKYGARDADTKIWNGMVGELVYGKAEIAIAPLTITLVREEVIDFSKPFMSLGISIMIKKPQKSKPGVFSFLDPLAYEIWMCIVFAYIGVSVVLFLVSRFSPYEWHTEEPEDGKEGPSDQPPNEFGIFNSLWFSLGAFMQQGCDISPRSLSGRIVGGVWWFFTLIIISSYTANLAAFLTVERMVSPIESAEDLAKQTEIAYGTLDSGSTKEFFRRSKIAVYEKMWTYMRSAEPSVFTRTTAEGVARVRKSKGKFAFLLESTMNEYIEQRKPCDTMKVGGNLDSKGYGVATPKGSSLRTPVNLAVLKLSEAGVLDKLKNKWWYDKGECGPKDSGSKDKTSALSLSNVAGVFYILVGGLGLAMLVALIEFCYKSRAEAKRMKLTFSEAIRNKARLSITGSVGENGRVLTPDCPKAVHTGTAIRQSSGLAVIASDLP

EC50	Compound
977 nM	COc1cc(C(=O)O)ccc1-c1ccc(-c2ccccc2NS(=O)(=O)C(C)C)cc1 [Example 46, 2″-Methoxy-2-(propane-2-sulfonylamino)-[1,1′;4′,1″]terphenyl-4″-carboxylic acid]
2460 nM	CC(C)S(=O)(=O)Nc1cnccc1-c1ccc(-c2ccc(C(=O)O)cc2C#N)cc1 [Example 51, 2-Cyano-4′-[3-(propane-2-sulfonylamino)-pyridin-4-yl]-biphenyl-4-carboxylic acid]
151 nM	CC(C)S(=O)(=O)Nc1ccsc1-c1ccc(-c2cc(F)c(O)c(F)c2C#N)cc1 [Example 56, Propane-2-sulfonic acid [2-(2′-cyano-3′,5′-difluoro-4′-hydroxy-biphenyl-4-yl)-thiophen-3-yl]-amide]
188 nM	CC(C)S(=O)(=O)Nc1ccsc1-c1ccc(-c2ccc(C(=O)O)cc2C#N)cc1 [Example 72, 2-Cyano-4′-[3-(propane-2-sulfonylamino)-thiophen-2-yl]-biphenyl-4-carboxylic acid]

Compound	EC50
CC(C)S(=O)(=O)Nc1ccsc1-c1ccc(-c2cc(F)c(O)c(F)c2)cc1 [Example 11, Propane-2-sulfonic acid [2-(3′,5′-difluoro-4′-hydroxy-biphenyl-4-yl)-thiophen-3-yl]-amide]	720 nM
